Test system: human mutated 5HT2A receptor, AP-3
Assay: Receptor-mediated inositol phosphate (IP3) accumulation, AP-3
Assay type: cell-based
Conditions: 10 μM test compound, triplicate; control without test compound
Method: On day one, 1×10^7 293 cells per 150 mm plate were plated out. On day two, two reaction tubes were prepared (the proportions to follow for each tube are per plate): tube A was prepared by mixing 20 μg DNA (e.g., pCMV vector; pCMV vector AP-1 cDNA, etc.) in 1.2 ml serum free DMEM (Irvine Scientific, Irvine, Calif.); tube B was prepared by mixing 120 μl lipofectamine (Gibco BRL) in 1.2 ml serum free DMEM. Tubes A and B were then admixed by inversions (several times), followed by incubation at room temperature for 30-45 min. The admixture is referred to as the "transfection mixture". Plated 293 cells were washed with 1×PBS, followed by addition of 10 ml serum free DMEM. 2.4 ml of the transfection mixture was then added to the cells, followed by incubation for 4 hrs at 37° C./5% CO2. On day 3, cells were trypsinized and counted, followed by plating of 1×10^6 cells/well (poly D-lysine treated 12-well plates). Cells were permitted to adhere to the wells, followed by one wash with 1×PBS. Thereafter, 0.5 μCi ^3 H-inositol in 1 ml inositol-free DMEM was added per well. Protocol B.
On day 4, the cells were washed with 0.5 ml PBS and then 0.45 ml of assay medium was added containing inositol-free/serum free media, 10 μM pargyline, 10 mM lithium chloride, or 0.4 ml of assay medium and 50 ul of 10× ketanserin (ket) to a final concentration of 10 μM. The cells were then incubated for 30 minutes at 37° C. Then the cells were washed with 0.5 ml PBS and 200 ul of fresh/ice cold stop solution (1M KOH; 18 mM Na-borate; 3.8 mM EDTA) was added/well. The solution was kept on ice for 5-10 minutes or until the cells were lysed and then neutralized by 200 μl of fresh/ice cold neutralization sol. (7.5% HCL). The lysate was then transferred into 1.5 ml microcentrifuge tubes and 1 ml of chloroform/methanol (1:2) was added/tube. The solution was vortexed for 15 seconds and the upper phase was applied to a Biorad AG1-X8 anion exchange resin (100-200 mesh). The resin was washed with water and 0.9 ml of the upper phase was loaded onto the column. The column was washed with 10 mls of 5 mM myo-inositol and 10 ml of 5 mM Na-borate/60 mM Na-formate. The inositol trisphosphates were eluted into scintillation vials containing 10 ml of scintillation cocktail with 2 ml of 0.1 M formic acid/1 M ammonium formate. The columns were regenerated by washing with 10 ml of 0.1 M formic acid/3M ammonium formate and rinsed twice with dd H2 O and stored at room temperature in water.
Candidate compound identified in the assays of Examples 9a-9c were then evaluated for inositol phosphate accumulation, following the protocol of Example 5 ([…] expressing human mutated 5HT2A receptor, AP-3), modified as follows: tube A was prepared by mixing 16 μg DNA (e.g., pCMV vector; pCMV vector AP-1 cDNA, etc.) in 1.0 ml serum free DMEM (Irvine Scientific, Irvine, Calif.); tube B was prepared by mixing 60 μl lipofectamine (Gibco BRL) in 1.0 ml serum free DMEM. Tubes A and B were then admixed by inversions (several times), followed by incubation at room temperature for 30 min. The admixture is referred to as the "transfection mixture". Plated 293 cells were washed with 10 ml Serum Free DMEM, followed by addition of 11 ml Serum Free DMEM. 2.0 ml of the transfection mixture was then added to the cells, followed by incubation for 5 hrs at 37° C./5% CO2. On day 3, cells were trypsinized and counted, followed by plating of 1×10^6 cells/well (12-well plates). Cells were permitted to adhere to the wells for 8 hrs, followed by one wash with 1×PBS. Thereafter, 0.5 μCi ^3 H-inositol in 1 ml inositol-free DMEM was added per well.
On day 4, the cells were washed with 1.5 ml PBS and then 0.9 ml of assay medium was added containing inositol-free/serum free media, 10 μM pargyline, 10 mM lithium chloride, for 5 min in 37° C./5% CO2 followed by 100 μl addition of candidate compound diluted in the same material. The cells were then incubated for 120 minutes at 37° C. […]

SMILES | IP3 % of Control
CSc1ccc(NC(=O)Nc2cccc(-c3nn(C)cc3Br)c2)cc1 [Compound 116079, N-[3-(4-bromo-1-methylpyrazol-3-yl)phenyl][(4-methylthiophenyl)amino]carboxamide] | 16%
Cn1cc(Br)c(-c2cccc(NC(=O)Nc3ccccc3OC(F)(F)F)c2)n1 [Compound 116087, {[3-(4-bromo-1-methylpyrazol-3-yl)phenyl]amino}-N-[2-(trifluoromethoxy)phenyl]carboxamide] | 11%
Cn1cc(Br)c(-c2cccc(NC(=O)Nc3ccccc3[N+](=O)[O-])c2)n1 [Compound 116089, {[3-(4-bromo-1-methylpyrazol-3-yl)phenyl]amino}-N-(2-nitrophenyl)carboxamide] | 27%
COc1ccc(NC(=O)Nc2cccc(-c3nn(C)cc3Br)c2)cc1 [Compound 116091, {[3-(4-bromo-1-methylpyrazol-3-yl)phenyl]amino}-N-(4-methoxyphenyl)carboxamide] | 12%
Cc1ccccc1NC(=O)Nc1cccc(-c2nn(C)cc2Br)c1 [Compound 116092, {[3-(4-bromo-1-methylpyrazol-3-yl)phenyl]amino}-N-(2-methylphenyl)carboxamide] | 32%
Cn1cc(Br)c(-c2cccc(NC(=O)Nc3ccc(C(F)(F)F)cc3)c2)n1 [Compound 116097, {[3-(4-bromo-1-methylpyrazol-3-yl)phenyl]amino}-N-[4-(trifluoromethyl)phenyl]carboxamide] | 11%
Cn1cc(Br)c(-c2cccc(NC(=O)Nc3cccc(Cl)c3)c2)n1 [Compound 116105, {[3-(4-bromo-1-methylpyrazol-3-yl)phenyl]amino}-N-(3-chlorophenyl)carboxamide] | 11%
Cn1cc(Br)c(-c2cccc(NC(=O)Nc3ccccc3Cl)c2)n1 [Compound 116108, {[3-(4-bromo-1-methylpyrazol-3-yl)phenyl]amino}-N-(2-chlorophenyl)carboxamide] | 6%
CC(C)c1ccc(NC(=O)Nc2cccc(-c3nn(C)cc3Br)c2)cc1 [Compound 116110, {[3-(4-bromo-1-methylpyrazol-3-yl)phenyl]amino}-N-[4-(methylethyl)phenyl]carboxamide] | 7%
COc1cccc(NC(=O)Nc2cccc(-c3nn(C)cc3Br)c2)c1 [Compound 116111, {[3-(4-bromo-1-methylpyrazol-3-yl)phenyl]amino}-N-(3-methoxyphenyl)carboxamide] | 7%
Cc1cccc(NC(=O)Nc2cccc(-c3nn(C)cc3Br)c2)c1 [Compound 116112, {[3-(4-bromo-1-methylpyrazol-3-yl)phenyl]amino}-N-(3-methylphenyl)carboxamide] | 14%
Cn1cc(Br)c(-c2cccc(NC(=O)Nc3ccc(C(C)(C)C)cc3)c2)n1 [Compound 116119, N-[4-(tert-butyl)phenyl]{[3-(4-bromo-1-methylpyrazol-3-yl)phenyl]amino}carboxamide] | 17%
CN(C)c1ccc(NC(=O)Nc2cccc(-c3nn(C)cc3Br)c2)cc1 [Compound 116122, N-[4-(dimethylamino)phenyl]{[3-(4-bromo-1-methylpyrazol-3-yl)phenyl]amino}carboxamide] | 9%
Cc1c(Cl)cc(NC(=O)Nc2cccc(-c3nn(C)cc3Br)c2)cc1Cl [Compound 116138, N-(3,5-dichloro-4-methylphenyl){[3-(4-bromo-1-methylpyrazol-3-yl)phenyl]amino}carboxamide] | 23%
Cn1cc(Br)c(-c2cccc(NC(=O)Nc3ccc(SC(F)(F)F)cc3)c2)n1 [Compound 116139, {[3-(4-bromo-1-methylpyrazol-3-yl)phenyl]amino}-N-[4-(trifluoromethylthio)phenyl]carboxamide] | 12%
Cn1cc(Br)c(-c2cccc(NC(=O)Nc3ccccc3F)c2)n1 [Compound 116144, {[3-(4-bromo-1-methylpyrazol-3-yl)phenyl]amino}-N-(2-fluorophenyl)carboxamide] | 12%
Cn1cc(Br)c(-c2cccc(NC(=O)Nc3ccccc3C(N)=O)c2)n1 [Compound 116145, 2-({[3-(4-bromo-1-methylpyrazol-3-yl)phenyl]amino}carbonylamino)benzamide] | 31%
Cn1cc(Br)c(-c2cccc(NC(=O)Nc3ccc(C#N)cc3)c2)n1 [Compound 116147, {[3-(4-bromo-1-methylpyrazol-3-yl)phenyl]amino}-N-(4-cyanophenyl)carboxamide] | 12%
Cn1cc(Br)c(-c2cccc(NC(=O)Nc3ccccc3C#N)c2)n1 [Compound 116148, {[3-(4-bromo-1-methylpyrazol-3-yl)phenyl]amino}-N-(2-cyanophenyl)carboxamide] | 30%

Same assay, conditions: AP-3; Example 10

SMILES | IC50
Cn1cc(Br)c(-c2cccc(NC(=O)Nc3ccc(OC(F)(F)F)cc3)c2)n1 [Compound 103487, N-[3-(4-bromo-1-methylpyrazol-3-yl)phenyl][{(4-trifluoromethoxy)phenyl}amino]carboxamide] | 90 nM

Test system: not listed separately
Assay: Bar catalepsy test in rats (extrapyramidal side effect analysis)
Assay type: in vivo, rat (male Sprague-Dawley)
Conditions: 0.8 mg/kg

SMILES | induction of catalepsy | time spent on the bar
O=C(CCCN1CCC(O)(c2ccc(Cl)cc2)CC1)c1ccc(F)cc1 [haloperidol, reference compound] | induces catalepsy in rats | significant increase in time spent on the bar

Target: T1, endogenous human 5-HT2C receptor (Homo sapiens, UniProt P28335)
T1 sequence (P28335 33-458): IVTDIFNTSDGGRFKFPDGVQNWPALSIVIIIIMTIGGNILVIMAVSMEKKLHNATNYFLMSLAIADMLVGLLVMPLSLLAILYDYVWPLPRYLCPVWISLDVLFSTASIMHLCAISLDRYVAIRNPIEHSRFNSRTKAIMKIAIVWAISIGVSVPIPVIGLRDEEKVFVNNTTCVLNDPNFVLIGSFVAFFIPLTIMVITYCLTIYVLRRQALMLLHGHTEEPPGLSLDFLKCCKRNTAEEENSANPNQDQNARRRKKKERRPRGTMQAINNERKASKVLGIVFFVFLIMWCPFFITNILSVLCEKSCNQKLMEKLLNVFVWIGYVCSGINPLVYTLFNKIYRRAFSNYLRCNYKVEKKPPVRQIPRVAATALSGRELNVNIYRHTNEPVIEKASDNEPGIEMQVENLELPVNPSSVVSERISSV
Assay: not given
Conditions: 30 μM mianserin, data not shown

SMILES | inhibition of serotonin-stimulated [35S]GTPγS binding
CN1CCN2c3ccccc3Cc3ccccc3C2C1 (stereo not shown) [mianserin] | completely inhibited

Same assay, conditions: data not shown

SMILES | effect on serotonin response of [35S]GTPγS binding
CN1CCN2c3ccccc3Cc3ccccc3C2C1 (stereo not shown) [mianserin] | inhibits this response

Same assay, conditions: no agonist, data not shown

SMILES | effect on basal constitutive binding of [35S]GTPγS
CN1CCN2c3ccccc3Cc3ccccc3C2C1 (stereo not shown) [mianserin] | partial inverse agonist

Source: patent US6150393A (priority 1999, dated 2000)
